From patent US20230143604A1, “QW DOSING OF GIP RECEPTOR AGONIST PEPTIDE COMPOUNDS AND USES THEREOF” (TAKEDA PHARMACEUTICAL COMPANY LIMITED, priority 2020, published 2023)
Starred links: 1 amine or outer side, 2 acyl side, 3 side chain; linkers in the order of their positions; H or OH if unused. Non-standard residues stand in square brackets, D forms with d. Residues, ends and D or L forms follow the SMILES beside them. Groups on a side chain read outwards from the residue. *: point of attachment. C18 diacid = O=C(O)CCCCCCCCCCCCCCCCC(=O)*; C17 diacid = O=C(O)CCCCCCCCCCCCCCCC(=O)*; γGlu = O=C(O)[C@H](CCC(=O)[*:2])N[*:1]; AEEA = NCCOCCOCC(=O)O; Aib = CC(C)(N)C(=O)O

Assay: physchem
Summary of the method: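 3 mg of peptide treated with 100 μL portions of 200 mM phosphate buffer pH 7.4, sonicating/vortexing up to 1 min, with further buffer added until fully dissolved. Solubility then quantified by HPLC.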

| SMILES | solubility (pH 7.4) [mg/mL] | solubility (pH 7.4, aqueous buffer) [mg/mL] |
| --- | --- | --- |
| CC[C@H](C)[C@H](NC(=O)[C@H](CCCCN)NC(=O)[C@H](CC(=O)O)NC(=O)[C@H](CC(C)C)NC(=O)[C@H](C)NC(=O)[C@@H](NC(=O)[C@H](CO)NC(=O)[C@H](Cc1ccc(O)cc1)NC(=O)[C@H](CC(=O)O)NC(=O)[C@H](CO)NC(=O)[C@@H](NC(=O)[C@H](Cc1ccccc1)NC(=O)[C@@H](NC(=O)CNC(=O)[C@H](CCC(=O)O)NC(=O)C(C)(C)NC(=O)[C@@H](N)Cc1ccc(O)cc1)[C@@H](C)O)[C@@H](C)CC)[C@@H](C)CC)C(=O)N[C@@H](C)C(=O)N[C@@H](CCC(N)=O)C(=O)N[C@@H](CCCNC(=N)N)C(=O)N[C@@H](CCCCNC(=O)COCCOCCNC(=O)COCCOCCNC(=O)CC[C@H](NC(=O)CC[C@H](NC(=O)CCCCCCCCCCCCCCCC(=O)O)C(=O)O)C(=O)O)C(=O)N[C@@H](Cc1ccccc1)C(=O)N[C@H](C(=O)N[C@@H](CCC(=O)O)C(=O)N[C@@H](Cc1c[nH]c2ccccc12)C(=O)N[C@@H](CC(C)C)C(=O)N[C@@H](CC(C)C)C(=O)N[C@@H](C)C(=O)N[C@@H](CCC(N)=O)C(=O)N[C@@H](CCCNC(=N)N)C(=O)NCC(=O)O)C(C)C [Compound 143] (H-Y[Aib]EGTFISDYSIALDKIAQRK([AEEA-AEEA-γGlu-γGlu-C17 diacid])FVEWLLAQRG-OH) | ≥ 15 | ≥ 30 |
| CC[C@H](C)[C@H](NC(=O)[C@H](Cc1ccccc1)NC(=O)[C@@H](NC(=O)CNC(=O)[C@H](CCC(=O)O)NC(=O)C(C)(C)NC(=O)[C@@H](N)Cc1ccc(O)cc1)[C@@H](C)O)C(=O)N[C@@H](CO)C(=O)N[C@@H](CC(=O)O)C(=O)N[C@@H](Cc1ccc(O)cc1)C(=O)N[C@@H](CO)C(=O)N[C@H](C(=O)NC(C)(C)C(=O)N[C@@H](CCCCNC(=O)CNC(=O)CNC(=O)CNC(=O)CNC(=O)CNC(=O)CCCCCCCCCCCCCCCCC(=O)O)C(=O)N[C@@H](CC(=O)O)C(=O)N[C@@H](CCCNC(=N)N)C(=O)NC(C)(C)C(=O)N[C@@H](C)C(=O)N[C@@H](CCC(N)=O)C(=O)N[C@@H](CCCNC(=N)N)C(=O)N[C@@H](CC(=O)O)C(=O)N[C@@H](Cc1ccccc1)C(=O)N[C@H](C(=O)N[C@@H](CCC(=O)O)C(=O)N[C@@H](Cc1c[nH]c2ccccc12)C(=O)N[C@@H](CC(C)C)C(=O)N[C@@H](CC(C)C)C(=O)N[C@@H](C)C(=O)N[C@@H](CCC(N)=O)C(=O)N[C@@H](CCCNC(=N)N)C(=O)NCC(=O)O)C(C)C)[C@@H](C)CC [Compound 147] | ≥ 15 |  |
| CC[C@H](C)[C@H](NC(=O)[C@H](Cc1ccccc1)NC(=O)[C@@H](NC(=O)CNC(=O)[C@H](CCC(=O)O)NC(=O)C(C)(C)NC(=O)[C@@H](N)Cc1ccc(O)cc1)[C@@H](C)O)C(=O)N[C@@H](CO)C(=O)N[C@@H](CC(=O)O)C(=O)N[C@@H](Cc1ccc(O)cc1)C(=O)N[C@@H](CO)C(=O)N[C@H](C(=O)NC(C)(C)C(=O)N[C@@H](CCCCNC(=O)CNC(=O)CNC(=O)CNC(=O)CNC(=O)CNC(=O)CCCCCCCCCCCCCCCCC(=O)O)C(=O)N[C@@H](CC(=O)O)C(=O)N[C@@H](CO)C(=O)N[C@@H](C)C(=O)N[C@@H](C)C(=O)N[C@@H](CCC(N)=O)C(=O)NC(C)(C)C(=O)N[C@@H](CC(=O)O)C(=O)N[C@@H](Cc1ccccc1)C(=O)N[C@H](C(=O)N[C@@H](CC(N)=O)C(=O)N[C@@H](Cc1c[nH]c2ccccc12)C(=O)N[C@@H](CC(C)C)C(=O)N[C@@H](CC(C)C)C(=O)N[C@@H](C)C(=O)N[C@@H](CCC(N)=O)C(=O)N[C@@H](CCCNC(=N)N)C(=O)NCC(=O)O)C(C)C)[C@@H](C)CC [Compound 151] | ≥ 15 | ≥ 30 |
| CC[C@H](C)[C@H](NC(=O)[C@H](CCCCN)NC(=O)[C@H](CC(=O)O)NC(=O)[C@H](CC(C)C)NC(=O)[C@H](C)NC(=O)[C@@H](NC(=O)[C@H](CO)NC(=O)[C@H](Cc1ccc(O)cc1)NC(=O)[C@H](CC(=O)O)NC(=O)[C@H](CO)NC(=O)[C@@H](NC(=O)[C@H](Cc1ccccc1)NC(=O)[C@@H](NC(=O)CNC(=O)[C@H](CCC(=O)O)NC(=O)C(C)(C)NC(=O)[C@@H](N)Cc1ccc(O)cc1)[C@@H](C)O)[C@@H](C)CC)[C@@H](C)CC)C(=O)N[C@@H](C)C(=O)N[C@@H](CCC(N)=O)C(=O)NC(C)(C)C(=O)N[C@@H](CCCCNC(=O)COCCOCCNC(=O)COCCOCCNC(=O)CC[C@H](NC(=O)CC[C@H](NC(=O)CCCCCCCCCCCCCCCCC(=O)O)C(=O)O)C(=O)O)C(=O)N[C@@H](Cc1ccccc1)C(=O)N[C@H](C(=O)N[C@@H](CCC(=O)O)C(=O)N[C@@H](Cc1c[nH]c2ccccc12)C(=O)N[C@@H](CC(C)C)C(=O)N[C@@H](CC(C)C)C(=O)N[C@@H](C)C(=O)N[C@@H](CCC(N)=O)C(=O)N[C@@H](CCCNC(=N)N)C(=O)NCC(=O)O)C(C)C [Compound 153] (H-Y[Aib]EGTFISDYSIALDKIAQ[Aib]K([AEEA-AEEA-γGlu-γGlu-C18 diacid])FVEWLLAQRG-OH) | ≥ 15 | ≥ 30 |
| CC[C@H](C)[C@H](NC(=O)[C@H](CO)NC(=O)[C@H](Cc1ccc(O)cc1)NC(=O)[C@H](CC(=O)O)NC(=O)[C@H](CO)NC(=O)[C@@H](NC(=O)[C@H](Cc1ccccc1)NC(=O)[C@@H](NC(=O)CNC(=O)[C@H](CCC(=O)O)NC(=O)C(C)(C)NC(=O)[C@@H](N)Cc1ccc(O)cc1)[C@@H](C)O)[C@@H](C)CC)C(=O)N[C@@H](C)C(=O)N[C@@H](CC(C)C)C(=O)N[C@@H](CC(=O)O)C(=O)N[C@@H](CCCCN)C(=O)N[C@@H](C)C(=O)N[C@@H](C)C(=O)N[C@@H](CCC(N)=O)C(=O)NC(C)(C)C(=O)N[C@@H](CCCCNC(=O)COCCOCCNC(=O)COCCOCCNC(=O)CC[C@H](NC(=O)CC[C@H](NC(=O)CCCCCCCCCCCCCCCCC(=O)O)C(=O)O)C(=O)O)C(=O)N[C@@H](Cc1ccccc1)C(=O)N[C@H](C(=O)N[C@@H](CCC(=O)O)C(=O)N[C@@H](Cc1c[nH]c2ccccc12)C(=O)N[C@@H](CC(C)C)C(=O)N[C@@H](CC(C)C)C(=O)N[C@@H](C)C(=O)N[C@@H](CCC(N)=O)C(=O)N[C@@H](CCCNC(=N)N)C(=O)NCC(=O)O)C(C)C [Compound 154] (H-Y[Aib]EGTFISDYSIALDKAAQ[Aib]K([AEEA-AEEA-γGlu-γGlu-C18 diacid])FVEWLLAQRG-OH) | ≥ 15 | ≥ 30 |
| CC[C@H](C)[C@H](NC(=O)[C@H](CO)NC(=O)[C@H](Cc1ccc(O)cc1)NC(=O)[C@H](CC(=O)O)NC(=O)[C@H](CO)NC(=O)[C@@H](NC(=O)[C@H](Cc1ccccc1)NC(=O)[C@@H](NC(=O)CNC(=O)[C@H](CCC(=O)O)NC(=O)C(C)(C)NC(=O)[C@@H](N)Cc1ccc(O)cc1)[C@@H](C)O)[C@@H](C)CC)C(=O)N[C@@H](C)C(=O)N[C@@H](CC(C)C)C(=O)N[C@@H](CC(=O)O)C(=O)N[C@@H](CCCCN)C(=O)NC(C)(C)C(=O)N[C@@H](C)C(=O)N[C@@H](CCC(N)=O)C(=O)N[C@@H](C)C(=O)N[C@@H](CCCCNC(=O)COCCOCCNC(=O)COCCOCCNC(=O)CC[C@H](NC(=O)CC[C@H](NC(=O)CCCCCCCCCCCCCCCCC(=O)O)C(=O)O)C(=O)O)C(=O)N[C@@H](Cc1ccccc1)C(=O)N[C@H](C(=O)N[C@@H](CCC(=O)O)C(=O)N[C@@H](Cc1c[nH]c2ccccc12)C(=O)N[C@@H](CC(C)C)C(=O)N[C@@H](CC(C)C)C(=O)N[C@@H](C)C(=O)N[C@@H](CCC(N)=O)C(=O)N[C@@H](CCCNC(=N)N)C(=O)NCC(=O)O)C(C)C [Compound 155] (H-Y[Aib]EGTFISDYSIALDK[Aib]AQAK([AEEA-AEEA-γGlu-γGlu-C18 diacid])FVEWLLAQRG-OH) | ≥ 15 | ≥ 30 |
| CC[C@H](C)[C@H](NC(=O)[C@H](CO)NC(=O)[C@H](Cc1ccc(O)cc1)NC(=O)[C@H](CC(=O)O)NC(=O)[C@H](CO)NC(=O)[C@@H](NC(=O)[C@H](Cc1ccccc1)NC(=O)[C@@H](NC(=O)CNC(=O)[C@H](CCC(=O)O)NC(=O)C(C)(C)NC(=O)[C@@H](N)Cc1ccc(O)cc1)[C@@H](C)O)[C@@H](C)CC)C(=O)N[C@@H](C)C(=O)N[C@@H](CC(C)C)C(=O)N[C@@H](CC(=O)O)C(=O)N[C@@H](CCCCN)C(=O)NC(C)(C)C(=O)N[C@@H](C)C(=O)N[C@@H](CCC(N)=O)C(=O)N[C@@H](CCCNC(=N)N)C(=O)N[C@@H](CCCCNC(=O)COCCOCCNC(=O)COCCOCCNC(=O)CC[C@H](NC(=O)CC[C@H](NC(=O)CCCCCCCCCCCCCCCCC(=O)O)C(=O)O)C(=O)O)C(=O)N[C@@H](Cc1ccccc1)C(=O)N[C@H](C(=O)N[C@@H](CCC(=O)O)C(=O)N[C@@H](Cc1c[nH]c2ccccc12)C(=O)N[C@@H](CC(C)C)C(=O)N[C@@H](CC(C)C)C(=O)N[C@@H](C)C(=O)N[C@@H](CCC(N)=O)C(=O)N[C@@H](CCCNC(=N)N)C(=O)NCC(=O)O)C(C)C [Compound 156] (H-Y[Aib]EGTFISDYSIALDK[Aib]AQRK([AEEA-AEEA-γGlu-γGlu-C18 diacid])FVEWLLAQRG-OH) | ≥ 15 | ≥ 30 |
| CC[C@H](C)[C@H](NC(=O)[C@H](CO)NC(=O)[C@H](Cc1ccc(O)cc1)NC(=O)[C@H](CC(=O)O)NC(=O)[C@H](CO)NC(=O)[C@@H](NC(=O)[C@H](Cc1ccccc1)NC(=O)[C@@H](NC(=O)CNC(=O)[C@H](CCC(=O)O)NC(=O)C(C)(C)NC(=O)[C@@H](N)Cc1ccc(O)cc1)[C@@H](C)O)[C@@H](C)CC)C(=O)N[C@@H](C)C(=O)NC(C)(C)C(=O)N[C@@H](CC(=O)O)C(=O)N[C@@H](CCCCN)C(=O)N[C@@H](C)C(=O)N[C@@H](C)C(=O)N[C@@H](CCC(N)=O)C(=O)N[C@@H](CCC(N)=O)C(=O)N[C@@H](CCCCNC(=O)COCCOCCNC(=O)COCCOCCNC(=O)CC[C@H](NC(=O)CC[C@H](NC(=O)CCCCCCCCCCCCCCCCC(=O)O)C(=O)O)C(=O)O)C(=O)N[C@@H](Cc1ccccc1)C(=O)N[C@H](C(=O)N[C@@H](CCC(=O)O)C(=O)N[C@@H](Cc1c[nH]c2ccccc12)C(=O)N[C@@H](CC(C)C)C(=O)N[C@@H](CC(C)C)C(=O)N[C@@H](C)C(=O)N[C@@H](CCC(N)=O)C(=O)N[C@@H](CCCNC(=N)N)C(=O)NCC(=O)O)C(C)C [Compound 157] (H-Y[Aib]EGTFISDYSIA[Aib]DKAAQQK([AEEA-AEEA-γGlu-γGlu-C18 diacid])FVEWLLAQRG-OH) | ≥ 15 | ≥ 30 |
